Assay results published in US20220162192A1 (ESCAPE Bio, Inc., priority 2019, published 2022).
Like-named read-outs stand apart in the source and are kept apart here.

Legend:
[1] = target: T1, Recombinant G2019S-LRRK2 protein (Homo sapiens, UniProt Q5S007, G2019S); assay: LanthaScreen Kinase Activity Assay (TR-FRET), G2019S-LRRK2; format: biochemical; settings: class symbols; 25 μM ATP, 400 nM LRRKtide, 2.9 nM kinase, 60 min at room temperature
T1 construct: purchased Life Technologies PV4881
Protocol: (§1) LRRK2 kinase activity was measured using a LanthaScreen™ Kinase Activity Assay from ThermoFisher Scientific. Recombinant wild type or G2019S-LRRK2 protein (Life Technologies, PR8604B or PV4881, respectively), was incubated with a fluorescein-labeled peptide substrate called LRRKtide that is based upon ezrin/radixin/moesin (ERM) (Life Technologies, PV4901) in the presence of ATP and serially diluted compound. After an incubation period of 1 hr, the phosphotransferase activity was stopped and a terbium-labelled anti-pERM antibody (Life Technologies, PV4899) was added to detect the phosphorylation of LRRKtide by measuring the time resolved-Forster resonant energy transfer (TR-FRET) signal from the terbium label on the antibody to the fluorescein tag on LRRKtide, expressed as the 520 nm/495 nm emission ratio. Compound-dependent inhibition of the TR-FRET signal was used to generate a concentration-response curve for IC50 determination.
(§2) The assay was carried out under the following protocol conditions: 1 mM compound in DMSO was serially diluted 1:3, 11 points in DMSO with a Biomek FX and 0.1 μL of the diluted compound was subsequently stamped into the assay plate (384-well format Lumitrac 200, Greiner, 781075) with an Echo Labcyte such that the final compound concentration in the assay was 10 μM to […]. Subsequently, 5 μL of 2× kinase solution (2.9 nM final concentration) was added to the assay plate in assay buffer composed of 50 mM Tris pH 8.5 (Sigma, T6791), 5 mM MgCl2 (Fluka, 63020), 1 mM EGTA (Sigma, E3889), 0.01% BRIJ-35 (Sigma, P1254) and 2 mM DTT. The reaction was started by addition of 2×ATP/LRRKtide solution in assay buffer such that the final concentration was 400 nM LRRKtide and 25 μM ATP. After 60 min incubation at room temperature, the reaction was stopped by addition of […] containing a final concentration of 2 nM anti-pERM antibody and 10 mM EDTA. After a 30 min incubation at RT, the TR-FRET signal was measured on a Wallac 2104 EnVision® multilabel reader at an excitation wavelength of 340 nm and reading emission at 520 nm and 495 nm. The ratio of the 520 nm and 495 nm emission was used to analyze the data.

[2] = target: T2, Recombinant wild type LRRK2 protein (Homo sapiens, UniProt Q5S007); assay: LanthaScreen Kinase Activity Assay (TR-FRET), wild type LRRK2; format: biochemical; settings: 25 μM ATP, 400 nM LRRKtide, 2.9 nM kinase, 60 min at room temperature, read-out: LRRK2 WT IC50
T2 construct: purchased Life Technologies PR8604B
Protocol: as §1, §2

[3] = numeric bound instead of class symbol

T1 sequence (Q5S007 whole entry G2019S): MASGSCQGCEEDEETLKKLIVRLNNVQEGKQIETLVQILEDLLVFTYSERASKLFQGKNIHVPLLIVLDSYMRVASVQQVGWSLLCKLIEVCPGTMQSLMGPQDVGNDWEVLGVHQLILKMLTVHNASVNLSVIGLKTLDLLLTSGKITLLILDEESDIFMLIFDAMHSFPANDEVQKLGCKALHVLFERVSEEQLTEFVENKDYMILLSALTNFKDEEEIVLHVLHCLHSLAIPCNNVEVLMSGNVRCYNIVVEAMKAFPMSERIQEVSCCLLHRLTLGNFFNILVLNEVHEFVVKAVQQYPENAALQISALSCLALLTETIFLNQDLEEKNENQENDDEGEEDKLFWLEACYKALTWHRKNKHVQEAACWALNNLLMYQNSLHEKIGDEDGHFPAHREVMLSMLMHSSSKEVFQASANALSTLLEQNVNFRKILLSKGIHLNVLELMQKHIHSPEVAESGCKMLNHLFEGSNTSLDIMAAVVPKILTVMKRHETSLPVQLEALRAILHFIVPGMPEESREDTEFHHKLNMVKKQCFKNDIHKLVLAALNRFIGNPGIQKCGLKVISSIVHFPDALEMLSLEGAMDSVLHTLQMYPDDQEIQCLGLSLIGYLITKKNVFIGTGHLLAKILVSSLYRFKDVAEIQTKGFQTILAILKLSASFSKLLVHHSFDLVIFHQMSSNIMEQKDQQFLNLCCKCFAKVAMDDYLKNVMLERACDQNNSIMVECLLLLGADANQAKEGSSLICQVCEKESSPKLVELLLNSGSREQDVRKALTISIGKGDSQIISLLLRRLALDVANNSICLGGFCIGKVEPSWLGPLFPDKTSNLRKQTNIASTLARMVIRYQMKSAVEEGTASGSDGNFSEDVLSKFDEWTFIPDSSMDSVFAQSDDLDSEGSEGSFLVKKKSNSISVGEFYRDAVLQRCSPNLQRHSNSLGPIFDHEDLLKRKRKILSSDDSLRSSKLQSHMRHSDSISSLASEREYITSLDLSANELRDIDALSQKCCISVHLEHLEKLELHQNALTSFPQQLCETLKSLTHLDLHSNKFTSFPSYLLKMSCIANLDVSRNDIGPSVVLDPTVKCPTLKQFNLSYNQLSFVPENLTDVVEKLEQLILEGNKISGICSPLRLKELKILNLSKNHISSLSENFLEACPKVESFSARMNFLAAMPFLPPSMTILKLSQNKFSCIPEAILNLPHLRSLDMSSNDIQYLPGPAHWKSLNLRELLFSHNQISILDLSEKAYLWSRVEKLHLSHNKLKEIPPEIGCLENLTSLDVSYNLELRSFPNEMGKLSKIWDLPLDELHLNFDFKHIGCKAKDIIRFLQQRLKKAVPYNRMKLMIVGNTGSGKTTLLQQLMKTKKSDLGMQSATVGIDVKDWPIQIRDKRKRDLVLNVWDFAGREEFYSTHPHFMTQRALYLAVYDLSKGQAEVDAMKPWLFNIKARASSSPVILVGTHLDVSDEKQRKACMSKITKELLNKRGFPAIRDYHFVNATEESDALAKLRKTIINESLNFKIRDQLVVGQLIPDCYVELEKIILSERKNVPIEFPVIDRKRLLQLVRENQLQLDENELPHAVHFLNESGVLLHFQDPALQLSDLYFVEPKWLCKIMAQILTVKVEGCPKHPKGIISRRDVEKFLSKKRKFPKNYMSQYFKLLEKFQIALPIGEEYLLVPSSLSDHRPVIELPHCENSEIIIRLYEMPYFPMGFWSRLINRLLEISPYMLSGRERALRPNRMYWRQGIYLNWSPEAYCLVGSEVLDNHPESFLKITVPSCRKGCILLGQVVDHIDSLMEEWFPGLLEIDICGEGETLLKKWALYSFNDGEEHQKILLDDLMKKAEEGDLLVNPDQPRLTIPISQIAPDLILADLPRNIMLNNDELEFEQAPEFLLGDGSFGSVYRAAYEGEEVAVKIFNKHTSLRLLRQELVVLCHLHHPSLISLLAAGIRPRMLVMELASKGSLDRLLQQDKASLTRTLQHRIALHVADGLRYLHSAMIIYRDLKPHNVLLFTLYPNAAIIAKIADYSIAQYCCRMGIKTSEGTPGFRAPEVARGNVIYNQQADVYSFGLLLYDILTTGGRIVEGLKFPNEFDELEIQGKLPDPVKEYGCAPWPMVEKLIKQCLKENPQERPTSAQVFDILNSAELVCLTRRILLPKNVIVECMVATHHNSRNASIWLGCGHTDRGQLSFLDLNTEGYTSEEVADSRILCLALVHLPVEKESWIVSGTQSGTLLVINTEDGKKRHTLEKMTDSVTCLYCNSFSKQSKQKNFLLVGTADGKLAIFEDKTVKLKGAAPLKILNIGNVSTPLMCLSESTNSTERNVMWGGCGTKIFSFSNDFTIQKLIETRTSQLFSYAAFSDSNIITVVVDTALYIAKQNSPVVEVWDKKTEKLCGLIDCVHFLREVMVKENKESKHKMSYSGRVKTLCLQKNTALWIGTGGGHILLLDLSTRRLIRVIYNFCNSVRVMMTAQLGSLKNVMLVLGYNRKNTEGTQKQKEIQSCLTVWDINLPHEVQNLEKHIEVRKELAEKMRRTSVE
T2 sequence (Q5S007 whole entry): as the sequence (Q5S007 whole entry G2019S) above, with S2019G counted along it

| SMILES | IC50 [1] [nM] | IC50 ([2]; class symbols) [nM] | IC50 [2, 3] [nM] |
| --- | --- | --- | --- |
| Cn1ncc2c(F)c(C(=O)Nc3ccc4[nH]nc(N5Cc6ccccc6C5)c4c3)c(F)cc21 [Example 109, 4,6-Difluoro-N-(3-(isoindolin-2-yl)-1H-indazol-5-yl)-1-methyl-1H-indazole-5-carboxamide] | ≤ 100 | 100 to 1000 | – |
| Cc1cc2[nH]nnc2c(C)c1C(=O)Nc1ccc2[nH]nc(C)c2c1 [Example 11, 4,6-Dimethyl-N-(3-methyl-1H-indazol-5-yl)-1H-benzo[d][1,2,3]triazole-5-carboxamide] | 100 to 1000 | 1000 to 10000 | – |
| Cn1ncc2c(F)c(C(=O)Nc3ccc4[nH]nc(-n5ccnc5)c4c3)c(F)cc21 [Example 141, N-(3-(1H-Imidazol-1-yl)-1H-indazol-5-yl)-4,6-difluoro-1-methyl-1H-indazole-5-carboxamide] | ≤ 100 | 100 to 1000 | – |
| Cc1oncc1-c1n[nH]c2ccc(NC(=O)c3c(F)cc4c(cnn4C)c3F)cc12 [Example 29, 4,6-Difluoro-1-methyl-N-(3-(5-methylisoxazol-4-yl)-1H-indazol-5-yl)-1H-indazole-5-carboxamide] | ≤ 100 | 100 to 1000 | – |
| Cn1ncc2c(F)c(C(=O)Nc3ccc4[nH]nc(-c5ccc(N6CCOCC6)cc5)c4c3)c(F)cc21 [Example 94, 4,6-Difluoro-1-methyl-N-(3-(4-morpholinophenyl)-1H-indazol-5-yl)-1H-indazole-5-carboxamide] | ≤ 100 | ≤ 100 | – |
| Cc1n[nH]c2ccc(NC(=O)c3ccc4[nH]nnc4c3C#N)cc12 [Example 14, 4-Cyano-N-(3-methyl-1H-indazol-5-yl)-1H-benzo[d][1,2,3]triazole-5-carboxamide] | 1000 to 10000 | – | > 10000 |
| Cn1ncc2c(F)c(C(=O)Nc3ccc4[nH]nc(N5CC(C(=O)O)C5)c4c3)c(F)cc21 [Example 142, 1-(5-(4,6-difluoro-1-methyl-1H-indazole-5-carboxamido)-1H-indazol-3-yl)azetidine-3-carboxylic acid] | 1000 to 10000 | – | > 10000 |
| Cn1ncc2c(F)c(C(=O)Nc3ccc4[nH]nc(C5CCOC5)c4c3)c(F)cc21 (stereo not drawn) [Example 104, 4,6-Difluoro-1-methyl-N-(3-(tetrahydrofuran-3-yl)-1H-indazol-5-yl)-1H-indazole-5-carboxamide] | 100 to 1000 | 1000 to 10000 | – |
| COc1ccccc1-c1n[nH]c2ccc(NC(=O)c3c(F)cc4c(cnn4C)c3F)cc12 [Example 85, 4,6-Difluoro-N-(3-(2-methoxyphenyl)-1H-indazol-5-yl)-1-methyl-1H-indazole-5-carboxamide] | ≤ 100 | 1000 to 10000 | – |
| Cc1cc2nn[nH]c2cc1C(=O)Nc1ccc2[nH]nc(-c3ccncc3)c2c1 [Example 1] | ≤ 100 | 100 to 1000 | – |
| Cn1ncc2c(F)c(C(=O)Nc3ccc4[nH]nc(-c5ccno5)c4c3)c(F)cc21 [Example 137, 4,6-Difluoro-N-(3-(isoxazol-5-yl)-1H-indazol-5-yl)-1-methyl-1H-indazole-5-carboxamide] | ≤ 100 | ≤ 100 | – |
| Cn1ncc2c(F)c(C(=O)Nc3ccc4[nH]nc(-c5ccncn5)c4c3)c(F)cc21 [Example 73, 4,6-Difluoro-1-methyl-N-(3-(pyrimidin-4-yl)-1H-indazol-5-yl)-1H-indazole-5-carboxamide] | ≤ 100 | ≤ 100 | – |
| Cn1cc2cc(C(=O)Nc3ccc4[nH]nc(-c5cnco5)c4c3)ncc2n1 [Example 159, 2-Methyl-N-(3-(oxazol-5-yl)-1H-indazol-5-yl)-2H-pyrazolo[3,4-c]pyridine-5-carboxamide] | ≤ 100 | ≤ 100 | – |
| CCCc1n[nH]c2ccc(NC(=O)c3c(F)cc4c(cnn4C)c3F)cc12 [Example 99, 4,6-Difluoro-1-methyl-N-(3-propyl-1H-indazol-5-yl)-1H-indazole-5-carboxamide] | ≤ 100 | 100 to 1000 | – |
| Cn1ncc2c(F)c(C(=O)Nc3ccc4[nH]nc(-c5cncnc5)c4c3)c(F)cc21 [Example 34, 4,6-Difluoro-1-methyl-N-(3-(pyrimidin-5-yl)-1H-indazol-5-yl)-1H-indazole-5-carboxamide] | ≤ 100 | 100 to 1000 | – |
| Cn1ncc2c(F)c(C(=O)Nc3ccc4[nH]nc(N5CCCC5)c4c3)c(F)cc21 [Example 108, 4,6-Difluoro-1-methyl-N-(3-(pyrrolidin-1-yl)-1H-indazol-5-yl)-1H-indazole-5-carboxamide] | 100 to 1000 | 1000 to 10000 | – |
| COc1ccc(C)cc1-c1n[nH]c2ccc(NC(=O)c3c(F)cc4c(cnn4C)c3F)cc12 [Example 89, 4,6-Difluoro-N-(3-(2-methoxy-5-methylphenyl)-1H-indazol-5-yl)-1-methyl-1H-indazole-5-carboxamide] | ≤ 100 | 100 to 1000 | – |

Now from value to molecule:

| IC50 [1] [nM] | IC50 ([2]; class symbols) [nM] | IC50 [2, 3] [nM] | SMILES |
| --- | --- | --- | --- |
| 100 to 1000 | 100 to 1000 | – | O=C(Nc1ccc2[nH]nc(-c3ccoc3)c2c1)c1cn2cccnc2n1 [Example 128, N-(3-(Furan-3-yl)-1H-indazol-5-yl)imidazo[1,2-a]pyrimidine-2-carboxamide] |
| ≤ 100 | 100 to 1000 | – | O=C(Nc1ccc2[nH]nc(-c3ccoc3)c2c1)c1ccn2nccc2c1 [Example 117, N-(3-(Furan-3-yl)-1H-indazol-5-yl)pyrazolo[1,5-a]pyridine-5-carboxamide] |
| ≤ 100 | ≤ 100 | – | O=C(Nc1ccc2[nH]nc(-c3ccoc3)c2c1)c1ccc2ncsc2n1 [Example 122, N-(3-(Furan-3-yl)-1H-indazol-5-yl)thiazolo[5,4-b]pyridine-5-carboxamide] |
| 100 to 1000 | 100 to 1000 | – | O=C(Nc1ccc2[nH]nc(-c3ccoc3)c2c1)c1cnc2ccnn2c1 [Example 130, N-(3-(Furan-3-yl)-1H-indazol-5-yl)pyrazolo[1,5-a]pyrimidine-6-carboxamide] |
| ≤ 100 | ≤ 100 | – | Cc1cc2cnnn2c(C)c1C(=O)Nc1ccc2[nH]nc(-c3ccoc3)c2c1 [Example 150, N-(3-(Furan-3-yl)-1H-indazol-5-yl)-5,7-dimethyl-[1,2,3]triazolo[1,5-a]pyridine-6-carboxamide] |
| 100 to 1000 | 100 to 1000 | – | Cn1cnc2cc(C(=O)Nc3ccc4[nH]nc(-c5ccoc5)c4c3)ccc21 [Example 132, N-(3-(Furan-3-yl)-1H-indazol-5-yl)-1-methyl-1H-benzo[d]imidazole-5-carboxamide] |
| ≤ 100 | ≤ 100 | – | Cc1cc2cnnn2c(C)c1C(=O)Nc1ccc2[nH]nc(-c3ccccc3)c2c1 [Example 48, 5,7-Dimethyl-N-(3-phenyl-1H-indazol-5-yl)-[1,2,3]triazolo[1,5-a]pyridine-6-carboxamide] |
| ≤ 100 | 100 to 1000 | – | O=C(Nc1ccc2[nH]nc(-c3ccoc3)c2c1)c1ccc2ocnc2c1 [Example 126, N-(3-(Furan-3-yl)-1H-indazol-5-yl)benzo[d]oxazole-5-carboxamide] |
| ≤ 100 | 100 to 1000 | – | O=C(Nc1ccc2[nH]nc(-c3ccoc3)c2c1)c1cnc2nccn2c1 [Example 129, N-(3-(Furan-3-yl)-1H-indazol-5-yl)imidazo[1,2-a]pyrimidine-6-carboxamide] |
| ≤ 100 | 100 to 1000 | – | O=C(Nc1ccc2[nH]nc(-c3ccoc3)c2c1)c1ccn2nccc2n1 [Example 127, N-(3-(Furan-3-yl)-1H-indazol-5-yl)pyrazolo[1,5-a]pyrimidine-5-carboxamide] |
| 100 to 1000 | 1000 to 10000 | – | Cc1cc2cc[nH]c2cc1C(=O)Nc1ccc2[nH]nc(-c3ccccc3)c2c1 [Example 22, 5-Methyl-N-(3-phenyl-1H-indazol-5-yl)-1H-indole-6-carboxamide] |
| ≤ 100 | ≤ 100 | – | Cc1cn2cncc2cc1C(=O)Nc1ccc2[nH]nc(-c3ccco3)c2c1 [Example 154, N-(3-(Furan-2-yl)-1H-indazol-5-yl)-6-methylimidazo[1,5-a]pyridine-7-carboxamide] |
| ≤ 100 | ≤ 100 | – | Cc1cc2c(C)ncn2c(C)c1C(=O)Nc1ccc2[nH]nc(-c3ccoc3)c2c1 [Example 147, N-(3-(Furan-3-yl)-1H-indazol-5-yl)-1,5,7-trimethylimidazo[1,5-a]pyridine-6-carboxamide] |
